Experimental findings from US20160073662A1, “PRESERVATIVE AND ADDITIVE FOR FOOD AND FEED” (priority 2014, published 2016) are described below.

This series in a line: Contact of acid solution with human skin. As to conditions: solution with a pH of less than 0.5.

For the compound `O=S(=O)(O)O` [sulfuric acid], the “irritation of hand put into solution” value is recorded as “an irritation would occur”.
